Consider two compounds from publication PMC9030254, “Target Hopping from Protein Kinases to PXR: Identification of Small-Molecule Protein Kinase Inhibitors as Selective Modulators of Pregnane X Receptor from TüKIC Library” (Cells, 2022).

Test in all cases: Kinase profiling
Format in all cases: biochemical

For assay [1], the target named is T1, CK2alpha2 (Homo sapiens, UniProt P19784).
T1 construct: purchased ProQinase (Freiburg, Germany)
As for the experimental part:
(§1) The analysis was performed by ProQinase (Freiburg, Germany).

Assay [2] has as its target T2, RON (Homo sapiens, UniProt Q04912).
T2 construct: purchased ProQinase (Freiburg, Germany)
As for the experimental part: as §1

Assay [3] deals with T3, BRSK1 (Homo sapiens, UniProt Q8TDC3).
T3 construct: purchased ProQinase (Freiburg, Germany)
T3 sequence (Q8TDC3 1-778): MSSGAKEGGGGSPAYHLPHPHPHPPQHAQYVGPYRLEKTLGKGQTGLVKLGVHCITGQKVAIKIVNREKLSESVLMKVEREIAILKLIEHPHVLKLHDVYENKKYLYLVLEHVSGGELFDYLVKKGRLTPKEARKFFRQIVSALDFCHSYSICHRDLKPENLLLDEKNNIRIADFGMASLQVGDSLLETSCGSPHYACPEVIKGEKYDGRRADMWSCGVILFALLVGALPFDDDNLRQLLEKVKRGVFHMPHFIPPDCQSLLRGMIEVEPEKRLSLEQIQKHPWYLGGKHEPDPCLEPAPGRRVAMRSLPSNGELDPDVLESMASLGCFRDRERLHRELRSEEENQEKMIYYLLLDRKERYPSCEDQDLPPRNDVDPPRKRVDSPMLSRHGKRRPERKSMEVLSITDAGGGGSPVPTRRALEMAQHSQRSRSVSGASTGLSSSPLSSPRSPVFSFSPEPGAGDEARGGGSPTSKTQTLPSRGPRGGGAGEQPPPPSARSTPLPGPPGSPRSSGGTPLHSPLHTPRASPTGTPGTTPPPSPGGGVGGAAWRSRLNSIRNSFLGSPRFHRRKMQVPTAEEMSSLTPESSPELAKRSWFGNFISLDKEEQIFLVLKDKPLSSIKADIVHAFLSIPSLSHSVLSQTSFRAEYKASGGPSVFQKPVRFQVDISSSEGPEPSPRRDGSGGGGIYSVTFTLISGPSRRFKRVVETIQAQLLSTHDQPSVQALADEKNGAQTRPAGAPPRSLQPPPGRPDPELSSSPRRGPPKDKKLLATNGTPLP
As for the experimental part: as §1

For assay [4], the target named is T4, CLK1 (Homo sapiens, UniProt P49759).
T4 construct: purchased ProQinase (Freiburg, Germany)
T4 sequence (P49759 whole entry): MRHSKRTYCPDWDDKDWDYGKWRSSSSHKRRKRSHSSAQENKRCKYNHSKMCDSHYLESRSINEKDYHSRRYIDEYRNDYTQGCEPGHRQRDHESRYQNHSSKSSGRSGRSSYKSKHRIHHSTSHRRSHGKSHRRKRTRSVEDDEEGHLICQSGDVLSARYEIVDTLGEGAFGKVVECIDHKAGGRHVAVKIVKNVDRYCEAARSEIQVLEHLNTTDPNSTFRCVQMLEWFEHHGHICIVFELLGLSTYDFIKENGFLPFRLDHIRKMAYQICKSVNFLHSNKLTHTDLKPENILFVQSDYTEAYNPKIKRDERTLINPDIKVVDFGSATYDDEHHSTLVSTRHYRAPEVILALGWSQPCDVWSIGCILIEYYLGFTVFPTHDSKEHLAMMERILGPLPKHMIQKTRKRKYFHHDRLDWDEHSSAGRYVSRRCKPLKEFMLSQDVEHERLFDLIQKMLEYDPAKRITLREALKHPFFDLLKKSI
As for the experimental part:
as §1

In assay [5] the target is T5, TTK (Homo sapiens, UniProt P33981).
T5 construct: purchased ProQinase (Freiburg, Germany)
T5 sequence (P33981 1-857): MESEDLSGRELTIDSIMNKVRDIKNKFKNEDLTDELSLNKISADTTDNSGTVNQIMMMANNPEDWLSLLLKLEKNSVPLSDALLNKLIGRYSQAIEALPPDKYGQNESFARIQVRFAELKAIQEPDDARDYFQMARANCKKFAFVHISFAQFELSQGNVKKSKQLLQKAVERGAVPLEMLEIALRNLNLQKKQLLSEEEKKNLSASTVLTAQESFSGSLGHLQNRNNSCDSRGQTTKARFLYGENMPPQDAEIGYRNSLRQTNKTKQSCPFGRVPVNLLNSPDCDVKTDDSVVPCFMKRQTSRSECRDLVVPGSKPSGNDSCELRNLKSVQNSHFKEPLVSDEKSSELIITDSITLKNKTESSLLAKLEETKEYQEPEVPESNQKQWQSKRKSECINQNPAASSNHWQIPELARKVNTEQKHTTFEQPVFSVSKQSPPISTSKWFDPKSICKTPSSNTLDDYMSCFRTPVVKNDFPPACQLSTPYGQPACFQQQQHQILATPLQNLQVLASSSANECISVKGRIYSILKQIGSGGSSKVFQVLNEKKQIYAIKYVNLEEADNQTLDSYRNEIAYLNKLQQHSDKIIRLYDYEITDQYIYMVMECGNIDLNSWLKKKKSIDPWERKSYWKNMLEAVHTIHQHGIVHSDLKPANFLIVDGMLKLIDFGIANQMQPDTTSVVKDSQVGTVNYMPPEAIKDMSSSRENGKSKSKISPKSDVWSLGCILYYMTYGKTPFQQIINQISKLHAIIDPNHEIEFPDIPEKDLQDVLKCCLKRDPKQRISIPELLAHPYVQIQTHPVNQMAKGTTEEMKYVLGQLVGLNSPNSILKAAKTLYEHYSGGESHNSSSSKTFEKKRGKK
As for the experimental part:
as §1

For assay [6], the target named is T6, PBK (Homo sapiens, UniProt Q96KB5).
T6 construct: purchased ProQinase (Freiburg, Germany)
T6 sequence (Q96KB5 1-322): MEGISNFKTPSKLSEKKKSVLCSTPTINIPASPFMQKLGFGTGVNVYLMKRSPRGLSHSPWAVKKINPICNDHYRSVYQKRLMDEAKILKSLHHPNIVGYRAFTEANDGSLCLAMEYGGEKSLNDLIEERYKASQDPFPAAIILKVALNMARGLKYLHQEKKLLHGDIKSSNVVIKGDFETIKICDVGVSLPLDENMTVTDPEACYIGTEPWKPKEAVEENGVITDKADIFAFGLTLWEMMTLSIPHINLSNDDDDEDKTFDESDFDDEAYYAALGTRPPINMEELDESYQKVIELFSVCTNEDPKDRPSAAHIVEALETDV
As to the method:
as §1

Assay [7] concerns the target T7, PIM1 (Homo sapiens, UniProt P11309).
T7 construct: purchased ProQinase (Freiburg, Germany)
As for the experimental part:
as §1

The target in assay [8] is T8, CLK3 (Homo sapiens, UniProt P49761).
T8 construct: purchased ProQinase (Freiburg, Germany)
T8 sequence (P49761 whole entry): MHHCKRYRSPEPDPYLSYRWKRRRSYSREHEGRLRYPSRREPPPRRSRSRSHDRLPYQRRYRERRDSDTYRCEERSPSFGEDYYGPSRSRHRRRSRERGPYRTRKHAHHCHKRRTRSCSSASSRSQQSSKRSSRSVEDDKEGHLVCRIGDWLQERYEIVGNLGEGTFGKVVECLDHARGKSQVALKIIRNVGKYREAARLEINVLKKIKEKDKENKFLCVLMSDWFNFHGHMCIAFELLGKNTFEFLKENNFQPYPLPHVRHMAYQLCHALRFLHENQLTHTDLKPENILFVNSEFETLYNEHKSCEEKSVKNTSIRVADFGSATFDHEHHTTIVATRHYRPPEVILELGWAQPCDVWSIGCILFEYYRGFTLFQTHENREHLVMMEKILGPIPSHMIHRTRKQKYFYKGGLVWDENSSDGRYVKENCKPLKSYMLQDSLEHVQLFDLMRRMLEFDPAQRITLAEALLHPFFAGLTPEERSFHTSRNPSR
As to the method: as §1

T1 sequence (P19784 whole entry): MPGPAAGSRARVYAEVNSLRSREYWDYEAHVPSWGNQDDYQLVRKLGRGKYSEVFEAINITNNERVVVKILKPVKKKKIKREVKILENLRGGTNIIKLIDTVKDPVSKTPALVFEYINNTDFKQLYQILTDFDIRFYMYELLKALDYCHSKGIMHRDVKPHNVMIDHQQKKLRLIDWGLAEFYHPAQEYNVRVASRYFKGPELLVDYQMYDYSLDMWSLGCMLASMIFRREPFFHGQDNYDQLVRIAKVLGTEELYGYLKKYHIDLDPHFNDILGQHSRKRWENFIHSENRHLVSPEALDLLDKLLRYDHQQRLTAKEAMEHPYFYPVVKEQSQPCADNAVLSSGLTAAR
T2 sequence (Q04912 25-1400): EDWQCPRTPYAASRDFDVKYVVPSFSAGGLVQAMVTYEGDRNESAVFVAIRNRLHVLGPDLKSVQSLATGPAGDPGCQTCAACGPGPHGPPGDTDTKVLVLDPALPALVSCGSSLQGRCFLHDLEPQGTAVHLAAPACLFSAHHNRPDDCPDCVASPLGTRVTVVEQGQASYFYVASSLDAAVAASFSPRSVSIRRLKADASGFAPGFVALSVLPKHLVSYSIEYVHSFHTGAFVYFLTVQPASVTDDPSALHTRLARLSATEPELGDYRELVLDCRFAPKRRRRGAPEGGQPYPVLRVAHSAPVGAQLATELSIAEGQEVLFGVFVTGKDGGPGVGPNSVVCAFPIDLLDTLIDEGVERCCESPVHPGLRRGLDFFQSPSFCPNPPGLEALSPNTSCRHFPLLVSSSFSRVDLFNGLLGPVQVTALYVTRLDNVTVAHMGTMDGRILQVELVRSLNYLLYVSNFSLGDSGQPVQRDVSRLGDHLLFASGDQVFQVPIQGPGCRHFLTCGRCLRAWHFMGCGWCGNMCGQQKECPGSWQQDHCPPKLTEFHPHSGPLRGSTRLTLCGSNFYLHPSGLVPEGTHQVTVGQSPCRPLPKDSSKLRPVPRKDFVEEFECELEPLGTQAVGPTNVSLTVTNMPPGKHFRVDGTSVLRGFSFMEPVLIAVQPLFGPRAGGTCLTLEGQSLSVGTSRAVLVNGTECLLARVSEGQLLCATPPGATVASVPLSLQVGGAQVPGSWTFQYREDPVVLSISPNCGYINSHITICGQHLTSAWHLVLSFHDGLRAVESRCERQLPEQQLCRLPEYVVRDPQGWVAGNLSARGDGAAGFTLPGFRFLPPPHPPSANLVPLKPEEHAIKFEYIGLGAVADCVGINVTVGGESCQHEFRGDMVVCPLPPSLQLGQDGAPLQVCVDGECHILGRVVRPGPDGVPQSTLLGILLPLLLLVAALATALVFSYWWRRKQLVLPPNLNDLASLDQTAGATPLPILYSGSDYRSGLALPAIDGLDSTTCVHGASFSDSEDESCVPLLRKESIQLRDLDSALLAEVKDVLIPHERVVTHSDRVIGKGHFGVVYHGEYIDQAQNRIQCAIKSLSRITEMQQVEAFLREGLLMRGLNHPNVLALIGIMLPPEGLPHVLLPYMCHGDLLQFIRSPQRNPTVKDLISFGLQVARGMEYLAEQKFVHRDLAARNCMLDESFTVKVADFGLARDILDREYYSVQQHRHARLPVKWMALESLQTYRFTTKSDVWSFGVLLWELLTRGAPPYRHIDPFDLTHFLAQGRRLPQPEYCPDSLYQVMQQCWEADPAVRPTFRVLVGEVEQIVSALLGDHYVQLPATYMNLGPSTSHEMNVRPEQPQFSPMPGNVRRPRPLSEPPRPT
T7 sequence (P11309 whole entry): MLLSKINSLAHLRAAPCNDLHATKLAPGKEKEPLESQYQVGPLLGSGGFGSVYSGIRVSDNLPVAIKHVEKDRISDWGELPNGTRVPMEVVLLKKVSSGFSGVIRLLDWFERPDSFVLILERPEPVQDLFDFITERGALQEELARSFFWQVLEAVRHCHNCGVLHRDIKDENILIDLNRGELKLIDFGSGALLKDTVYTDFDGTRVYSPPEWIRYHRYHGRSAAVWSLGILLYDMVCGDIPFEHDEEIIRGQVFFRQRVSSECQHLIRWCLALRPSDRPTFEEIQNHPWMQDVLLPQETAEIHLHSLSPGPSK

As to `O=C(Cc1ccccc1)Nc1ccc(F)c(Nc2ccc3c(c2)CCCCC3=O)c1` [Compound 100], the Residual activity in assay [1] (1.0E-05 M) is given as 134 % of control; in assay [1] (1.0E-06 M), 137 % of control; in assay [2] (1.0E-05 M), 77 % of control; in assay [2] (1.0E-06 M), 104 % of control; in assay [3] (1.0E-05 M) it was 91 % of control; in assay [3] (1.0E-06 M) it was 101 % of control. The Residual activity in assay [4] (1.0E-05 M) is reported as 79 % of control; in assay [4] (1.0E-06 M), 99 % of control; in assay [5] (1.0E-05 M) it was 95 % of control; in assay [5] (1.0E-06 M) it was 99 % of control; in assay [6] (1.0E-05 M), 93 % of control; in assay [6] (1.0E-06 M), 128 % of control. The Residual activity is listed as 74 % of control in assay [7] (1.0E-05 M), 88 % of control in assay [7] (1.0E-06 M), 114 % of control in assay [8] (1.0E-05 M) and 130 % of control in assay [8] (1.0E-06 M).

Turning to `O=C(Nc1ccc(F)c(Nc2ccc3c(c2)CCCCC3=O)c1)c1cccc(F)c1` [Compound 109], the Residual activity in assay [1] (1.0E-05 M) is reported as 118 % of control; in assay [1] (1.0E-06 M), 119 % of control; in assay [2] (1.0E-05 M) it was 83 % of control; in assay [2] (1.0E-06 M) it was 89 % of control; in assay [3] (1.0E-05 M), 92 % of control; in assay [3] (1.0E-06 M), 92 % of control. Besides, the Residual activity is 96 % of control in assay [4] (1.0E-05 M); 105 % of control in assay [4] (1.0E-06 M); 89 % of control in assay [5] (1.0E-05 M); 91 % of control in assay [5] (1.0E-06 M); 106 % of control in assay [6] (1.0E-05 M); 95 % of control in assay [6] (1.0E-06 M). In addition, the Residual activity is reported as 70 % of control in assay [7] (1.0E-05 M), 96 % of control in assay [7] (1.0E-06 M), 105 % of control in assay [8] (1.0E-05 M) and 110 % of control in assay [8] (1.0E-06 M).
